How the values were obtained:
Test in all cases: Kinase panel study
Assay type in all cases: biochemical
Conditions in all cases: read-out: Percentage of inhibition; for inhibition at 1 µM: 1000nM; for inhibition at 10 µM: 10000nM
PLK3 = target: T1, PLK3 (Homo sapiens, UniProt Q9H4B4)
T1 construct: purchased Thermo Fisher Scientific
In short: (§1)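 Lead compounds and derivatives were profiled by ZLyte or Adapta in vitro kinase assays. Each value reports inhibition percentage at one of two concentrations, 1 µM or 10 µM.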

PEAK1 = target: T2, PEAK1 (Homo sapiens, UniProt Q9H792)
T2 construct: purchased Thermo Fisher Scientific
T2 sequence (Q9H792 whole entry): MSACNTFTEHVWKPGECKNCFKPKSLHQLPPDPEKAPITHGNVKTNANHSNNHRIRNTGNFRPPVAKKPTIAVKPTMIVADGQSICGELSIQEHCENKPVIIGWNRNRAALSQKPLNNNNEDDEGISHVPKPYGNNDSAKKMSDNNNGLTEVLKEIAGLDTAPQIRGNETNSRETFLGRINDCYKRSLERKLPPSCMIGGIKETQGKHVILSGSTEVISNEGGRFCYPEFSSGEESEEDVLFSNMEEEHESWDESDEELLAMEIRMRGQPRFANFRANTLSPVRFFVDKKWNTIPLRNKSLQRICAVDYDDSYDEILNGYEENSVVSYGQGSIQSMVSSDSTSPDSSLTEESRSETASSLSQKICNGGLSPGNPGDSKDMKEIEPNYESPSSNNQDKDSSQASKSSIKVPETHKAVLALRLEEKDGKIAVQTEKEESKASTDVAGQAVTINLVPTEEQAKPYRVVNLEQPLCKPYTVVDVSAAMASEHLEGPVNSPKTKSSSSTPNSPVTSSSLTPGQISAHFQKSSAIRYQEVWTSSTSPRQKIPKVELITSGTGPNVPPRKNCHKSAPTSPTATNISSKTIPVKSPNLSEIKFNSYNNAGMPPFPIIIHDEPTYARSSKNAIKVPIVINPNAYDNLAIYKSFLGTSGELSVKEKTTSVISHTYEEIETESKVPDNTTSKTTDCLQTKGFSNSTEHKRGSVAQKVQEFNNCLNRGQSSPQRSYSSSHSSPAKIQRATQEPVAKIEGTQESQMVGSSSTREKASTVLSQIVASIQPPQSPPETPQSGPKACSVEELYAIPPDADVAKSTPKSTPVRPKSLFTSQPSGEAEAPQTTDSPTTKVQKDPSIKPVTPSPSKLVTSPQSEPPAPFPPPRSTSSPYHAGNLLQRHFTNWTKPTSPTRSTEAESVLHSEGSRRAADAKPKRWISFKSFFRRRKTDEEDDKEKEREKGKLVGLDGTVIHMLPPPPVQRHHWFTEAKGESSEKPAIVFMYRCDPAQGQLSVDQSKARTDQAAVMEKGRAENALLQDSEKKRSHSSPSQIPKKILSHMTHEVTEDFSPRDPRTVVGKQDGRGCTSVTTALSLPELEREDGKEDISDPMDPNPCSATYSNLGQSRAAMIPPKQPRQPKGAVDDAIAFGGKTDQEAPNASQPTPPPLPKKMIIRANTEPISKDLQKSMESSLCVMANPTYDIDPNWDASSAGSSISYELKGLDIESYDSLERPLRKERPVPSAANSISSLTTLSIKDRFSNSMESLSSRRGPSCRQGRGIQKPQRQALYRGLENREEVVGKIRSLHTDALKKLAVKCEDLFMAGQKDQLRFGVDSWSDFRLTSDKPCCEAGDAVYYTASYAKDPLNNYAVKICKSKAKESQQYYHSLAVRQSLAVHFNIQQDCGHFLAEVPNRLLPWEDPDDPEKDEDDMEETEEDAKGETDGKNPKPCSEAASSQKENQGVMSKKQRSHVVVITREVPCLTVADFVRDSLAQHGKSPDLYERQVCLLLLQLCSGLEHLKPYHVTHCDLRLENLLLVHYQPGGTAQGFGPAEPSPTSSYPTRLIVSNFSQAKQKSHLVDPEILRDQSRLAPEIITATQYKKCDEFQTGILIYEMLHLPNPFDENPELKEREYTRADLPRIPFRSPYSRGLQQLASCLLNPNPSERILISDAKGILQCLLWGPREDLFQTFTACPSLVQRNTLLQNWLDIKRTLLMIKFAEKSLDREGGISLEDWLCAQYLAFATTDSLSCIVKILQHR
In short: as §1

RPS6KB2 (p70S6Kb) = target: T3, RPS6KB2 (p70S6Kb) (Homo sapiens, UniProt Q9UBS0)
T3 construct: purchased Thermo Fisher Scientific
T3 sequence (Q9UBS0 whole entry): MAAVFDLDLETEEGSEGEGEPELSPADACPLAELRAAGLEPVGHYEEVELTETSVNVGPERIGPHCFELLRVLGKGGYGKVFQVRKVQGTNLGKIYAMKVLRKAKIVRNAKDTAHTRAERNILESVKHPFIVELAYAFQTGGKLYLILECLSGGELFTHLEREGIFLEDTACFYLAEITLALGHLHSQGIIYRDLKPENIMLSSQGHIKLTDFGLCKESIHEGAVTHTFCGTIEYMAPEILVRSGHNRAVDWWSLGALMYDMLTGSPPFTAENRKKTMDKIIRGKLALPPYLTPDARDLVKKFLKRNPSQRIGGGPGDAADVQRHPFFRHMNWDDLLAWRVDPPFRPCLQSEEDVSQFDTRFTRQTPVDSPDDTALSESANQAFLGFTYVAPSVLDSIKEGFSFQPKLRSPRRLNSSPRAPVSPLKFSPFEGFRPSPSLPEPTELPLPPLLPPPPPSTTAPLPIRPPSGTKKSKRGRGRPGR
In short: as §1

PRKD1 (PKC mu) = target: T4, PRKD1 (PKC mu) (Homo sapiens, UniProt Q15139)
T4 construct: purchased Thermo Fisher Scientific
T4 sequence (Q15139 1-912): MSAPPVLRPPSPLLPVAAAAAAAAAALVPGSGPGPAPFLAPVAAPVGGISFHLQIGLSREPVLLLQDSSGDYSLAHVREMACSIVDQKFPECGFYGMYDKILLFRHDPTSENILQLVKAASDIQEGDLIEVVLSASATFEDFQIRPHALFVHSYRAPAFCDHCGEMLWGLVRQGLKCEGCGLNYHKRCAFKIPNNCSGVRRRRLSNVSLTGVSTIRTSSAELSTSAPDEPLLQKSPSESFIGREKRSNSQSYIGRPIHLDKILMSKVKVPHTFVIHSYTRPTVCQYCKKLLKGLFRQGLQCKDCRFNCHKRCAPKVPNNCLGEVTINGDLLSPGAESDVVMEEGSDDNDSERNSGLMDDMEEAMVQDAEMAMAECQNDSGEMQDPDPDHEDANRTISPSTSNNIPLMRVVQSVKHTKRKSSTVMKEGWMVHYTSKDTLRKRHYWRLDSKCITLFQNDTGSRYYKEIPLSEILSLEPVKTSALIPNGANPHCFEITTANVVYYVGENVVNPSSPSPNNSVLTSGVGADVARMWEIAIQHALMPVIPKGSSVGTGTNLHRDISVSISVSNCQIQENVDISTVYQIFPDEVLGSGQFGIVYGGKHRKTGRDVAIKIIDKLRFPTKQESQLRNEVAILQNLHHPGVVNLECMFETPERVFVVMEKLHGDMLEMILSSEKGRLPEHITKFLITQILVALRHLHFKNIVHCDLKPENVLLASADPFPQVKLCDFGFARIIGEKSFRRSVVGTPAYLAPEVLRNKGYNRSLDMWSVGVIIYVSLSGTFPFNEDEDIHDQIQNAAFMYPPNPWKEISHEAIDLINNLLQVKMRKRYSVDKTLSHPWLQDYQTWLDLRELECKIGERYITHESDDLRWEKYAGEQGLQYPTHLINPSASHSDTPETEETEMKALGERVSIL
In short: as §1

MATK (HYL) = target: T5, MATK (HYL) (Homo sapiens, UniProt P42679)
T5 construct: purchased Thermo Fisher Scientific
T5 sequence (P42679 1-507): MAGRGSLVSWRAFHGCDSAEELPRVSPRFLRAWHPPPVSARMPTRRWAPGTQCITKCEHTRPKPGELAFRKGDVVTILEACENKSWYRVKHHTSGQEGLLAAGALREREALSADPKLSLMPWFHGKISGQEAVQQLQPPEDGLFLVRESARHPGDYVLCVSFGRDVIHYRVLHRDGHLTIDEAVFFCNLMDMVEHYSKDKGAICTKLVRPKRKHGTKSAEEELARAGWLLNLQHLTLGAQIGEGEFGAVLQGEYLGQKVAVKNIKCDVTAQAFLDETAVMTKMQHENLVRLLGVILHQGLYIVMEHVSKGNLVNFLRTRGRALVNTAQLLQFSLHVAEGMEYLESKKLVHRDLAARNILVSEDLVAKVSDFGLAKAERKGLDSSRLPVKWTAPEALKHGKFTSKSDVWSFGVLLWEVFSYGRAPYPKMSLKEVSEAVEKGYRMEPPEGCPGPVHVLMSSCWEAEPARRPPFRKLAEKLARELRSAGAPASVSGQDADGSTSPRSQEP
In short: as §1

MARK1 (MARK) = target: T6, MARK1 (MARK) (Homo sapiens, UniProt Q9P0L2)
T6 construct: purchased Thermo Fisher Scientific
T6 sequence (Q9P0L2 whole entry): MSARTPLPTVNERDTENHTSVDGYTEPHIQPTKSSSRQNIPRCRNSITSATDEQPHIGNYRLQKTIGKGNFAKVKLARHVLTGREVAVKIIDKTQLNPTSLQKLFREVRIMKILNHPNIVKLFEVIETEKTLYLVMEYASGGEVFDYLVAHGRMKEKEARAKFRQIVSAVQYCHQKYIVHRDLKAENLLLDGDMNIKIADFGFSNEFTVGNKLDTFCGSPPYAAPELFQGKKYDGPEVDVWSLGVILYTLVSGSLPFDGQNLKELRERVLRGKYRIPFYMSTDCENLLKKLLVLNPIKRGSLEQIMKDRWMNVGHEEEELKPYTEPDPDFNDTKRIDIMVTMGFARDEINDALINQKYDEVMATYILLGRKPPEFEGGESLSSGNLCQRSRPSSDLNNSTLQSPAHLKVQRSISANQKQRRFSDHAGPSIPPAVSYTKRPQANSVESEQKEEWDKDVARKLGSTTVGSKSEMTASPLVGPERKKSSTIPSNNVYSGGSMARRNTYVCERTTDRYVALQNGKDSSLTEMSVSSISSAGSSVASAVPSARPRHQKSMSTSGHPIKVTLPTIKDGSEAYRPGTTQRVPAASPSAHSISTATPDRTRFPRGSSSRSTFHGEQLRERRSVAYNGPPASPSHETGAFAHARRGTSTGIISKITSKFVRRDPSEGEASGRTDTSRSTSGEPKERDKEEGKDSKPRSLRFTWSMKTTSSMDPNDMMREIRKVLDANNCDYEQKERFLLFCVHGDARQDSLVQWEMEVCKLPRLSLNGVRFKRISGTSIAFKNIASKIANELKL
In short: as §1

T1 sequence (Q9H4B4 whole entry): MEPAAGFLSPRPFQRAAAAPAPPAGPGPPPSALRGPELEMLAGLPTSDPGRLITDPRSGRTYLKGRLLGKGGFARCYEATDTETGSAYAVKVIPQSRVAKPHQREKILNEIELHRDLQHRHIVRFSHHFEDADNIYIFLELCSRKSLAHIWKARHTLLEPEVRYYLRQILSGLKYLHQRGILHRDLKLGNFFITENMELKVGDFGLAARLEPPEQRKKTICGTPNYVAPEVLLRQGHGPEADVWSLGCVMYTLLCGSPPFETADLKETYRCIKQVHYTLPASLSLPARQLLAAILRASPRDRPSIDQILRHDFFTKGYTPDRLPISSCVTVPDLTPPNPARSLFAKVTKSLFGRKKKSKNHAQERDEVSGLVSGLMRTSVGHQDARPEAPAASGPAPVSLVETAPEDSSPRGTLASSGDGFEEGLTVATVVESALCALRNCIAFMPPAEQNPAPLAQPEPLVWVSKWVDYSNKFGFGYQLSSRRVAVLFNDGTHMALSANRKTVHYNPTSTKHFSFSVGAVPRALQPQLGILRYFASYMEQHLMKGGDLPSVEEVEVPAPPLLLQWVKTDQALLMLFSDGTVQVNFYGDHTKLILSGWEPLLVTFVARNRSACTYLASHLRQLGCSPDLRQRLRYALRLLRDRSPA

COc1ccc2c(c1OC)c(=O)n1c3ccc(O)cc3c3ccnc2c31 [MW01, 5-Hydroxy-10,11-dimethoxy-9H-benzo[c]indolo[3,2,1-ij][1,5]naphthyridin-9-one]
inhibition at 1 µM (PLK3): 6%
inhibition at 10 µM (PLK3): 23%
inhibition at 1 µM (PEAK1): -1%
inhibition at 10 µM (PEAK1): 16%
inhibition at 1 µM (RPS6KB2 (p70S6Kb)): 7%
inhibition at 10 µM (RPS6KB2 (p70S6Kb)): 1%
inhibition at 1 µM (PRKD1 (PKC mu)): 28%
inhibition at 10 µM (PRKD1 (PKC mu)): 49%
inhibition at 1 µM (MATK (HYL)): 14%
inhibition at 10 µM (MATK (HYL)): 2%
inhibition at 1 µM (MARK1 (MARK)): 4%
inhibition at 10 µM (MARK1 (MARK)): 6%

COc1ccc2cc3c(N)nn(C(=O)c4cccc(N(C)C)c4)c3nc2c1 [MW05, (3-Amino-7-methoxypyrazolo[3,4-b]quinolin-1-yl)-[3-(dimethylamino)phenyl]methanone]
inhibition at 1 µM (PLK3): 5%
inhibition at 10 µM (PLK3): 12%
inhibition at 1 µM (PEAK1): 2%
inhibition at 10 µM (PEAK1): 0%
inhibition at 1 µM (RPS6KB2 (p70S6Kb)): 3%
inhibition at 10 µM (RPS6KB2 (p70S6Kb)): 15%
inhibition at 1 µM (PRKD1 (PKC mu)): 5%
inhibition at 10 µM (PRKD1 (PKC mu)): 9%
inhibition at 1 µM (MATK (HYL)): 13%
inhibition at 10 µM (MATK (HYL)): 13%
inhibition at 1 µM (MARK1 (MARK)): 3%
inhibition at 10 µM (MARK1 (MARK)): -5%

Source: patent publication EP4467141A1, “PYRAZOLO-QUINOLINES AS SELECTIVE INHIBITORS OF GENOTOXIC STRESS-INDUCED IKK/NF- KB PATHWAYS FOR CANCER THERAPY” (Max-Delbrück-Centrum für Molekulare Medizin in der …, priority 2023, dated 2024)
